Experimental data reported in PubChem BioAssay AID330 (DTP/NCI, 2004).
Where “and” joins values, the source holds several entries; their conditions need not be identical. Equal values may be shown once. Inconclusive results and toxic doses are left out. How the source made its calls: active means survival T/C of 150% or more; inactive means T/C below 125% in these data.

Test system: P388 leukemia ip, CD2F1 mice, survival T/C
Assay: NCI In Vivo Anticancer Drug Screen. Data for tumor model P388 Leukemia (intraperitoneal) in CD2F1 (CDF1) mice
Conditions: endpoint: median survival time, higher = longer survival
How it was run: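 Mice carrying the transplanted tumor received test compound or vehicle. Survival was recorded in each group, and the value is the treated-group measurement divided by that of the vehicle-treated control group.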

[1] = dose: 60.0 mg/kg/injection, schedule: Q01DX005 (ip), vehicle: saline with Tween-80
[2] = dose: 120.0 mg/kg/injection, schedule: Q01DX005 (ip), vehicle: saline with Tween-80
[3] = dose: 50.0 mg/kg/injection, schedule: Q01DX009 (ip), vehicle: Klucel (hydroxypropylcellulose) (HPC)
[4] = dose: 50.0 mg/kg/injection, schedule: Q01DX005 (ip), vehicle: saline with Tween-80
[5] = dose: 100.0 mg/kg/injection, schedule: Q01DX005 (ip), vehicle: saline with Tween-80
[6] = dose: 200.0 mg/kg/injection, schedule: Q01DX005 (ip), vehicle: saline with Tween-80
[7] = dose: 240.0 mg/kg/injection, schedule: Q01DX005 (ip), vehicle: saline with Tween-80
[8] = dose: 50.0 mg/kg/injection, schedule: Q01DX009 (ip), vehicle: saline with Tween-80
[9] = dose: 100.0 mg/kg/injection, schedule: Q01DX009 (ip), vehicle: saline with Tween-80
[10] = dose: 100.0 mg/kg/injection, schedule: Q01DX001 (ip), vehicle: saline
[11] = dose: 200.0 mg/kg/injection, schedule: Q01DX001 (ip), vehicle: saline
[12] = dose: 400.0 mg/kg/injection, schedule: Q01DX001 (ip), vehicle: saline
[13] = dose: 100.0 mg/kg/injection, schedule: Q01DX005 (ip), vehicle: Klucel (hydroxypropylcellulose) (HPC)
[14] = dose: 25.0 mg/kg/injection, schedule: Q04DX002 (ip), vehicle: saline with Tween-80

Measured: T/C

C/C(CCn1[nH]c(=O)ccc1=O)=N\NS(=O)(=O)c1ccc(C)cc1
inactive: [1] 103 % of control | [2] 109 % of control | dose: 134.0 mg/kg/injection, schedule: Q01DX005 (ip), vehicle: saline with Tween-80 105 % of control

CCOC(=O)/C(C=NC1CC(N=C/C(C(=O)OCC)=C(\C)O)CC(N=C/C(C(=O)OCC)=C(\C)O)C1)=C(/C)O (stereo not given)
inactive: dose: 6.25 mg/kg/injection, schedule: Q01DX009 (ip), vehicle: Klucel (hydroxypropylcellulose) (HPC) 106 % of control | dose: 12.5 mg/kg/injection, schedule: Q01DX009 (ip), vehicle: Klucel (hydroxypropylcellulose) (HPC) 103 % of control | dose: 25.0 mg/kg/injection, schedule: Q01DX009 (ip), vehicle: Klucel (hydroxypropylcellulose) (HPC) 97 % of control | [3] 93 % of control

O=C1c2ccccc2C(=O)c2c(O)c(CBr)c(CBr)c(O)c21
inactive: [4] 96 % of control | [5] 104 % of control | [6] 95 % of control

COc1cccc2c1C(=O)c1c(O)c3c(c(O)c1C2=O)C[C@@](O)(C(C)=O)CC3OC1CC(NC(=O)CCCN)C(O)C(C)O1 (stereo not given in full)
inactive: dose: 6.25 mg/kg/injection, schedule: Q04DX003 (ip), vehicle: saline 98 % of control | dose: 12.5 mg/kg/injection, schedule: Q04DX003 (ip), vehicle: saline 97 % of control | dose: 25.0 mg/kg/injection, schedule: Q04DX003 (ip), vehicle: saline 100 % of control | dose: 50.0 mg/kg/injection, schedule: Q04DX003 (ip), vehicle: saline 104 % of control

CN(CCCCCl)C(=O)Oc1ccccc1
inactive: [3] 102 % of control | dose: 100.0 mg/kg/injection, schedule: Q01DX009 (ip), vehicle: Klucel (hydroxypropylcellulose) (HPC) 106 % of control | dose: 200.0 mg/kg/injection, schedule: Q01DX009 (ip), vehicle: Klucel (hydroxypropylcellulose) (HPC) 99 % of control

O=C(CBr)NN=C(c1ccccc1)c1ccccc1
inactive: dose: 29.0 mg/kg/injection, schedule: Q01DX009 (ip), vehicle: saline with Tween-80 104 % of control | dose: 58.0 mg/kg/injection, schedule: Q01DX009 (ip), vehicle: saline with Tween-80 101 % of control | dose: 116.0 mg/kg/injection, schedule: Q01DX009 (ip), vehicle: saline with Tween-80 110 % of control

Fc1c(F)c(F)c(CCc2c(F)c(F)c(F)c(F)c2F)c(F)c1F
inactive: [1] 99 % of control | [2] 89 % of control | [7] 88 % of control

C(=N[C@H]1CCCC[C@H]1N=Cc1ccccn1)c1ccccn1
inactive: [4] 95 % of control | [5] 90 % of control | [6] 101 % of control

CC12C(=O)C=CCC1=CCC1C2CCC2(O)C(=O)OC3(C)C4CC5(C)C(COC16OC23C5C6=O)C(=O)O4 (stereo not given)
inactive: dose: 25.0 mg/kg/injection, schedule: Q01DX009 (ip), vehicle: saline with Tween-80 96 % of control | [8] 110 % of control | [9] 120 % of control | dose: 150.0 mg/kg/injection, schedule: Q01DX009 (ip), vehicle: Klucel (hydroxypropylcellulose) (HPC) 121 % of control

C[C@@H]1C[C@@H]2c3cccc4c3c(cn4C)C[C@H]2N(C)C1
inactive: [4] 104 % of control | [5] 107 % of control | [6] 104 % of control

O=C(NCc1ccco1)C(=O)N/N=C/c1ccccc1O
inactive: [8] 89 % of control | [9] 92 % of control | dose: 200.0 mg/kg/injection, schedule: Q01DX009 (ip), vehicle: saline with Tween-80 92 % of control

N#Cc1c2c(n3c1[nH]c(=O)c1ccccc13)CCCC2
inactive: [1] 105 % of control | [2] 100 % of control | [7] 99 % of control

CN=C(NC)c1cccc(NC(=O)/C=C\c2ccc(/C=C/C(=O)Nc3cccc(C(=NC)NC)c3)cc2)c1
inactive: dose: 1.56 mg/kg/injection, schedule: Q01DX005 (ip), vehicle: saline with Tween-80 121 % of control

OCCCCCCCCCCCCCC1C=CCC1 (stereo not given)
inactive: [10] 104 % of control | [11] 100 % of control | [12] 100 % of control

O=C1C(Cl)=C(NCCC2CCCN3CCCCC23)C(=O)c2ccccc21 (stereo not given)
inactive: dose: 12.5 mg/kg/injection, schedule: Q01DX005 (ip), vehicle: Klucel (hydroxypropylcellulose) (HPC) 99 % of control and 101 % of control and 93 % of control | dose: 25.0 mg/kg/injection, schedule: Q01DX005 (ip), vehicle: Klucel (hydroxypropylcellulose) (HPC) 98 % of control and 99 % of control and 97 % of control | [13] 109 % of control and 111 % of control

COC(=O)CC1(C(=O)OC)C(Sc2ccccc2)=C(c2ccccc2)N2CCCC21 (stereo not given)
inactive: dose: 21.88 mg/kg/injection, schedule: Q01DX009 (ip), vehicle: Klucel (hydroxypropylcellulose) (HPC) 101 % of control | dose: 43.75 mg/kg/injection, schedule: Q01DX009 (ip), vehicle: Klucel (hydroxypropylcellulose) (HPC) 96 % of control | dose: 87.5 mg/kg/injection, schedule: Q01DX009 (ip), vehicle: Klucel (hydroxypropylcellulose) (HPC) 96 % of control | dose: 175.0 mg/kg/injection, schedule: Q01DX009 (ip), vehicle: Klucel (hydroxypropylcellulose) (HPC) 92 % of control

CCc1cc2c(cc1C(C)=O)C(C)(C)CCC2(C)C
inactive: [8] 94 % of control | [9] 110 % of control

Oc1ccc[nH]c1=S
inactive: dose: 12.5 mg/kg/injection, schedule: Q01DX009 (ip), vehicle: saline 104 % of control and 105 % of control

COc1ccc(/C=N/Nc2ccc([N+](=O)[O-])cc2[N+](=O)[O-])cc1
inactive: dose: 50.0 mg/kg/injection, schedule: Q04DX003 (ip), vehicle: saline with Tween-80 93 % of control | dose: 100.0 mg/kg/injection, schedule: Q04DX003 (ip), vehicle: saline with Tween-80 94 % of control | dose: 200.0 mg/kg/injection, schedule: Q04DX003 (ip), vehicle: saline with Tween-80 88 % of control | dose: 400.0 mg/kg/injection, schedule: Q04DX003 (ip), vehicle: saline with Tween-80 91 % of control

CN1CC[As+](Cc2ccccc2)(c2ccccc2)CC1
inactive: [10] 87 % of control | [11] 102 % of control | [12] 104 % of control

CCC1(C)c2[nH]c3ccccc3c2C(=O)NN1C(C)=O (stereo not given)
inactive: dose: 50.0 mg/kg/injection, schedule: Q01DX005 (ip), vehicle: Klucel (hydroxypropylcellulose) (HPC) 104 % of control | [13] 107 % of control | dose: 200.0 mg/kg/injection, schedule: Q01DX005 (ip), vehicle: Klucel (hydroxypropylcellulose) (HPC) 112 % of control

O=C(OCc1ccccc1)N1CC=CC1Cc1ccccc1 (stereo not given)
inactive: dose: 100.0 mg/kg/injection, schedule: Q01DX001 (ip), vehicle: distilled water + alcohol 97 % of control | dose: 200.0 mg/kg/injection, schedule: Q01DX001 (ip), vehicle: distilled water + alcohol 99 % of control | dose: 400.0 mg/kg/injection, schedule: Q01DX001 (ip), vehicle: distilled water + alcohol 100 % of control

C[Se]C(C)(C)C(O)(Cc1ccccc1)c1ccccc1 (stereo not given)
inactive: [14] 88 % of control | dose: 50.0 mg/kg/injection, schedule: Q04DX002 (ip), vehicle: saline with Tween-80 94 % of control | dose: 100.0 mg/kg/injection, schedule: Q04DX002 (ip), vehicle: saline with Tween-80 101 % of control

O=c1cc[nH]c2c1ccc1[nH]ccc(=O)c12
inactive: dose: 60.0 mg/kg/injection, schedule: Q01DX005 (ip), vehicle: Klucel (hydroxypropylcellulose) (HPC) 108 % of control | dose: 120.0 mg/kg/injection, schedule: Q01DX005 (ip), vehicle: Klucel (hydroxypropylcellulose) (HPC) 99 % of control | dose: 240.0 mg/kg/injection, schedule: Q01DX005 (ip), vehicle: Klucel (hydroxypropylcellulose) (HPC) 99 % of control

CN=C1NC2C(C(=O)N(C)C(=O)N2C)C(=S)N1C (stereo not given)
inactive: dose: 6.25 mg/kg/injection, schedule: Q04DX002 (ip), vehicle: saline with Tween-80 100 % of control | dose: 12.5 mg/kg/injection, schedule: Q04DX002 (ip), vehicle: saline with Tween-80 104 % of control | [14] 101 % of control
